How the values were obtained:
[1] = Absorption and emission spectra in solution; assay type: physicochemical
Excerpt: Expectedly, the emission spectrum of TBT-2(1P-DPA), and TBT-2(2P-DPA) both ends below 1000 nm, while the emission maximum of TBT-2(TP-DPA) was 1046 nm when upon 808 nm excitation (FIG. 3d). […] The experimental characterization is in consistency with our theoretical hypothesis, which made TBT-2(TP-DPA) ideal candidates as the template of NIR-II theranostic agents.

[2] = Absolute fluorescence quantum yield in the NIR region; assay type: physicochemical; details: in toluene, under 808 nm excitation
Experimental: Under 808 nm excitation, the absolute quantum yield of TBT-2(TP-DPA) in the NIR region was determined to be 10.4% in toluene.

absorption ended up to ([1]; in THE solution)	absorption peak ([1]; in THE solution)	emission wavelength extended to [1]	emission maximum ([1]; upon 808 nm excitation)	absolute quantum yield in the NIR region [2]	Structure (SMILES)
800 nm	580 nm	–	–	–	CCCCC(CC)Cn1nc2c(-c3ccc(N(c4ccc(OC)cc4)c4ccc(OC)cc4)cc3)c3c(c(-c4ccc(N(c5ccc(OC)cc5)c5ccc(OC)cc5)cc4)c2n1)N=S=N3 (stereo not drawn) [TBT-2(1P-DPA)]
–	around 800 nm	~1500 nm	1046 nm	10.4%	CCCCC(CC)Cn1nc2c(-c3ccc(-c4ccc(N(c5ccc(OC)cc5)c5ccc(OC)cc5)cc4)s3)c3c(c(-c4ccc(-c5ccc(N(c6ccc(OC)cc6)c6ccc(OC)cc6)cc5)s4)c2n1)N=S=N3 (stereo not drawn) [TBT-2(TP-DPA)]

— patent US20260137814A1, “FLUORESCENT COMPOUNDS FOR ACCELERATED CANCER THERANOSTIC” (The Hong Kong University of Science and Technology, priority 2022, published 2026)
